US20060052357A1, “Organometallic anti-tumour agent” (priority 2001, published 2006)

Assays:
AKATON tumor [1] = test: AKATON small bowel adenocarcinoma, treatment with MOC.melphalan (Example 8); assay type: in vivo, mice; conditions: day 21
Experimental: (§1) After transplantation of the AKATON tumor into white crossbred mice, the animals received the substance MOC.melphalan by intraabdominal administration in a dosage of 5 mg/kg in 0.3 ml of physiological solution on days 3, 5, 7 and 9. The animals were sacrificed on day 21 of the investigation and underwent histological, morphological examination (table 14).
as §1, with “intravenous” for “intraabdominal”, “15).” for “14).”

AKATON tumor [2] = test: AKATON tumor prevention by MOC.melphalan; assay type: in vivo, mice; conditions: for Average tumor mass: control 4.46; for Average tumor volume: control 7.90
Experimental: Mice of the Balb line received the substance MOC.melphalan in dosages of 2.5 mg/kg and 5 mg/kg in 0.3 ml of physiological solution by intravenous administration on four consecutive days (1× a day). On day 5, the AKATON tumor was implanted in the animals. The animals were sacrificed on day 21 of the investigation and underwent histological, morphological examination (table 16, FIG. 6).

[3] = test system: S-180 sarcoma tumor cells; test: DNA concentration in S-180 sarcoma tumor cells after incubation; assay type: cell-based, mice; conditions: 0.05 mg/10^6 cells; for DNA concentration: 37° C., control 106; for DNA concentration/control: control 100
Experimental: S-180 sarcoma tumor cells (20·10^6 cells/investigation) were incubated with the substance MOC.melphalan in a concentration of 0.05 mg/10^6 cells at a temperature of 37° C. for 40 or 60 min (see table 16).
The DNA concentration was determined using the phenol-chloroform method of MANIATIS (Maniatis, Frin, Sämbruck Methods of genetic engineering, Molecular Cloning, M.: MIR, 1984, pages 479 et seq.). Separation of DNA and RNA was followed by a phoresis in a 2.5% agarose gel (see table 16, FIG. 7).

leukemia P-388 [4] = test: Leukemia P-388 survival (original strain); assay type: in vivo, mice
Experimental: (§2) The therapeutic efficacy was investigated on the leukemia tumor strains L-1210, P-388, and P-388 strains specifically obtained for drug resistance. The lifespan of the animals was set at 60 days in this case. Drug-resistant tumor were obtained by successive transplantation of the leukemia P-388 with ascites cells taken from mice which had been treated with rubomycin (strain P388/ph), vincristine (P388/vcr) and zisplatin (P388/cPt).
Inoculum: 10^6 cells in 0.2 ml of physiological saline solution. Mice: BDF1. Females 19-21 g
(§3) After transplantation of the tumor, the substance MOC.melphalan was administered intraabdominally to the animals in a dosage of 5 mg/kg in 0.3 ml of 10% Twin-80 solution on days 1 to 7. The effect of the substance was assessed on the basis of the lifespan and the weight change of the animals (table 7).
(§4) The products were administered intraabdominally. Cu(acac)2M was dissolved in 10% Twin 80.

P388/ph = test: Drug-resistant leukemia P388/ph (rubomycin-resistant) survival; assay type: in vivo, mice; conditions: 5 mg/kg, days 1-7
Description: as §2
Resistance to the products mentioned appear in the 8th, 6th and 4th generation.
as §4

leukemia P-388 [5] = test: Leukemia P-388 survival (original strain); assay type: in vivo, mice; remark: listed apart in the source
C-180 sarcoma = test: Antitumor activity for C-180 sarcoma, intraperitoneal; assay type: in vivo; conditions: 5 mg/kg intraperitoneal
Experimental: 4. Antitumor Activity for C-180 Sarcoma
The results of series of experiments in which the stated active ingredient was administered intra-peritoneally in the stated dosage in physiological saline solution are shown in table 5 below.

leukemia L-1210 = test: Leukemia L-1210 survival; assay type: in vivo, mice
Experimental: as §2
Inoculum: 10^6 cells in 0.2 ml of physiological saline solution. Mice: BDF1, females 19-21 g. The products were administered intraabdominally.
as §3, with “9). The observation period was 60 days.” for “7).”

[6] = test system: tumor cell cultures (KML); test: Protein synthesis: inclusion of 3H-amino acids in tumor cell cultures; assay type: cell-based, mice; conditions: 50 μg/ml, incubation 24 hours
Experimental: The effect of the substances on protein synthesis is determined with the aid of the suppression stage through the inclusion of radioactive precursors of amino acids (totaled mixture of ^3H-amino acids). 1 million cells in a “log phase” were selected for this. The complexes were introduced in a dosage of 50 μg/ml and, in parallel, the amino acids with an activity of 10 mCi/ml were introduced into 10 ml bottles. After incubation for 24 hours, the cells were washed out from the cultivation nutrient medium, and a lysis (disruption) was carried out. The radioactivity of the proteins was determined in a […] (table 25).

adenocarcinoma = test: Adenocarcinoma, intravenous administration four times; assay type: in vivo, mice; conditions: 5 mg/kg intravenous four times
Description: 2. Antitumor Activity for Adenocarcinoma and Intra-Venous Administration (Four Times in Physiological Saline Solution)

[7] = 2.5 mg/kg i.v. four consecutive days before implantation
[8] = 5.0 mg/kg i.v. four consecutive days before implantation
[9] = 5 mg/kg intraabdominal days 1-7

CC(=O)C=C(C)[O-].CC(=O)C=C(C)[O-].NC(Cc1ccc(N(CCCl)CCCl)cc1)C(=O)O.[Cu+2] (stereo not shown) [MOC.melphalan, (C5H7O2)2—Cu—C13H18Cl2N2O2]
Percentage inhibition (AKATON tumor [1]; 5 mg/kg intraabdominal days 3, 5, 7, 9): 92% | Average tumor mass (AKATON tumor [1]; 5 mg/kg intraabdominal days 3, 5, 7, 9, control 3.6): 0.3 | Percentage inhibition (AKATON tumor [1]; 5 mg/kg intravenous days 3, 5, 7, 9): 80% | Average tumor mass (AKATON tumor [1]; 5 mg/kg intravenous days 3, 5, 7, 9, control 4.4): 0.9 g | Percent inhibition of tumor volume (AKATON tumor [2]; [7]): 40% | Percent inhibition of tumor weight (AKATON tumor [2]; [7]): 40% | Average tumor mass (AKATON tumor [2]; [7]): 2.67 g | Average tumor volume (AKATON tumor [2]; [7]): 4.76 cm^3 | Percent inhibition of tumor volume (AKATON tumor [2]; [8]): 82% | Percent inhibition of tumor weight (AKATON tumor [2]; [8]): 80% | Average tumor mass (AKATON tumor [2]; [8]): 0.91 g | Average tumor volume (AKATON tumor [2]; [8]): 1.38 cm^3 | DNA concentration ([3]; incubation 40 min): 530 μg/g of cells | DNA concentration ([3]; incubation 60 min): 53 μg/g of cells | DNA concentration/control ([3]; incubation 40 min): 498 | DNA concentration/control ([3]; incubation 60 min): 50 | Change in weight (leukemia P-388 [4]; [9]): -2.5 g | Increase in average lifespan (leukemia P-388 [4]; [9]): 56.0% | Number of animals which survived to day 60 (leukemia P-388 [4]; 5 mg/kg intraabdominal days 1-7, 6 animals): 0 | Average lifespan (leukemia P-388 [4]; 5 mg/kg intraabdominal days 1-7, control 10.8): 16.8 days | ILS % (leukemia P-388 [4]; 5 mg/kg, days 1-7): 56% | ILS % (P388/ph): 189% | Number of surviving animals/number of animals in group (P388/ph): 2/6 | ILS % (leukemia P-388 [5]; 10 mg/kg, days 1, 5, 9): 419% | Number of surviving animals/number of animals in group (leukemia P-388 [5]; 10 mg/kg, days 1, 5, 9): 5/6 | ILS % (leukemia P-388 [5]; 10 mg/kg, days 1, 7): 465% | Number of surviving animals/number of animals in group (leukemia P-388 [5]; 10 mg/kg, days 1, 7): 4/6 | ILS % (leukemia P-388 [5]; 15 mg/kg, days 1, 7): 447% | Number of surviving animals/number of animals in group (leukemia P-388 [5]; 15 mg/kg, days 1, 7): 5/6 | % inhibition (C-180 sarcoma): 100% | Mass of the tumor (C-180 sarcoma; control 2.8): no tumor | Change in weight (leukemia L-1210; [9]): -1.5 g | % of surviving animals (leukemia L-1210; 5 mg/kg intraabdominal days 1-7, 60 days observation): 100% | Lifespan of the animals in the experiment (leukemia L-1210; 5 mg/kg intraabdominal days 1-7, control 8.5): >60 days | Suppression of amino acid inclusion [6]: 59% | % inhibition (adenocarcinoma): 80% | Mass of the tumor (adenocarcinoma; control 4.4): 0.9 g
